Assay results published in patent publication US8440617B2, “Hyperbaric treatment in wound healing” (The Trustees of the University of Pennsylvania, priority 2007, dated 2013).
Entries after “also recorded” stand apart in the source; their conditions may differ.

Columns and labels:
[1] = Induction of diabetes with STZ, serum glucose by glucometer; type: in vivo, mouse; details: 60 mg/kg i.p. daily for 5 d
Protocol: (§1) Tie2-GFP, wild-type or chimeric FVB mice at 6-12 wk of age were treated with STZ (Sigma-Aldrich) to induce diabetes. Mice were rendered diabetic by i.p. administration of 60 mg/kg STZ in 50 mM sodium citrate, pH 4.5, daily for 5 d. Control mice were treated with daily injections of citrate buffer. Serum glucose was measured from the mouse tail vein using a glucometer. Once serum glucose reached 250 mg/dL, mice were followed with daily measurements for 1 wk prior to use in experiments. Serum glucose levels in STZ mice averaged 461 mg/dL with a range of 372-520 mg/dL, while control mice serum glucose mean level was 120 mg/dL with a range of 94-135 mg/dL. Wounds were induced on the ventral surface of the mouse thigh using a 4 mm punch biopsy. Full-thickness skin was removed, exposing the underlying muscle.

[2] = Mouse serum SDF-1α ELISA after wound injection; type: in vivo; details: 2 h following wound injection of SDF-1α
Protocol: Mouse serum SDF-1α concentration was measured by Quantikine® mouse SDF-1α ELISA kit (R&D Systems) based on manufacturer's protocol.

[3] = system: diabetic cutaneous wounds; assay: Peripheral wound healing (wound closure) in diabetic mice; type: in vivo, mouse; details: diabetic mice, 6 d post-wounding, FIG. 17A
Protocol: as §1
Initial wound surface area was recorded and wounds were then followed serially with daily digital photographs using an Olympus digital camera. Photographs contained an internal scale to allow for standard calibration of measurements. Wound area was quantified using ImageJ software. Wound area was expressed as the percentage of original wound size. Wounds were followed for 6 d and mice were sacrificed at the conclusion of the experiment.
EPCs play a key role in vasculogenesis and cutaneous tissue repair. It was hypothesized that increased numbers of EPCs in circulation, along with enhanced EPC homing to wounds, results in improved wound healing in diabetes. Diabetic wound closure rates were studied, in response to treatment with HBO and SDF-1α alone and in combination. Wounded diabetic mice underwent daily wound injections with SDF-1α, PBS, HBO, or SDF-1α+HBO treatments. […] This healing response was greater than the response to either treatment modality alone. In addition, histochemical analysis was conducted to examine blood vessel density (VEGFR2 staining), cellularity and stromagenesis (H&E staining), and extracellular constitution (trichrome staining) in wound tissues. […]

wound granulation tissue = assay: Histochemistry of diabetic wound tissue (VEGFR2 vessel density, H&E, trichrome collagen); type: in vivo, mouse; details: diabetic wounds at d 6, FIG. 17D-E
Description: (§2) For immunostaining, paraffin embedded serial sections (5 μm) were first underwent standard deparaffinizing and rehydration procedures and then probed with various Abs. To assess wound SDF-1α^+ cells, sections were double-stained with HTC-conjugated anti-SDF-1α and PE-conjugated different tissue-specific Abs (eBiosciences). To detect blood vessels in wound, sections were stained with HTC-conjugated anti-VEGFR2Ab. For examination of wound EPC recruitment in BM transplantation experiment, sections were double-stained with FITC-GFP and PE-VEGFR2 (BD Biosciences). Nuclei were counterstained with Hoescht dye. Masson's trichrome staining and H&E staining were performed using standard method and all reagents were from Sigma-Aldrich. Tissue sections were analyzed using fluorescence microscopy and ImageJ (NIH) software to quantitate fluorescent intensity. In trichrome stained slides, blue stain (collagen content) was also quantitatively analyzed by ImageJ.
EPCs play a key role in vasculogenesis and cutaneous tissue repair. It was hypothesized that increased numbers of EPCs in circulation, along with enhanced EPC homing to wounds, results in improved wound healing in diabetes. Diabetic wound closure rates were studied, in response to treatment with HBO and SDF-1α alone and in combination. Wounded diabetic mice underwent daily wound injections with SDF-1α, PBS, HBO, or SDF-1α+HBO treatments. […]

[4] = system: wound EPCs (GFP+/VEGFR2+); assay: EPC homing to wounds in diabetic GFP bone marrow chimeric mice; type: in vivo, mouse
Protocol: All procedures were done with approval from the University of Pennsylvania Institutional Animal Care and Use Committee (IACUC). 6-12 wk-old FVB wild-type mice (FVB/NJ), GFP (FVB/Tg) and Tie2-GFP (Tg(TIE2GFP)87 Sato/J) were purchased from The Jackson Laboratory. For all surgical procedures, mice were anesthetized with an i.p. injection of 80 mg/kg of ketamine (Phoenix Scientific, Inc.) and 20 mg/kg xylazine (Vedco Inc.). For BM transplantation experiments, 1×10^7 BM cells from GFP mice were transplanted to γ-irradiated (900 Rad) FVB wild type mouse via tail vein. […] For local wound SDF-1α injection, SDF-1α protein (R&D Systems) was reconstituted in PBS and injected into the wound base (25 μg/Kg).
as §2, with “For examination of wound EPC recruitment in BM transplantation experiment, sections were double-stained with FITC-GFP and PE-VEGFR2 (BD Biosciences). Nuclei were counterstained with Hoescht dye. Masson's trichrome staining and H&E staining were performed using standard method and all reagents were from Sigma-Aldrich.” left out, “ImageJ. […]” for “ImageJ.”

SDF-1α in wound tissue = assay: Wound SDF-1α level (immunostaining); type: in vivo, mouse; details: after SDF-1α injection, compared to nondiabetic wound
Description: as §2

[5] = system: circulating EPCs (CXCR4+/VEGFR2+, Tie2+/VEGFR2+); assay: Circulating EPCs by flow cytometry in STZ-diabetic mice; type: in vivo, mouse
Protocol: as §1
(§3) For HBO treatment, mice were placed in an animal hyperbaric chamber (Reneau Corp.) and subjected to 100% oxygen at 2.4 atmospheres absolute (ATA) for 90 min (Davis Wound Healing Protocol). To measure continuous, real-time BM NO levels, NO microelectrodes was inserted into the femoral marrow cavity as previously described. An osteotomy was created on the patellar surface of the murine femur using a 25 G beveled needle, allowing the electrode to be lowered into the marrow space when the animal was placed in the hyperbaric chamber. In some mice, pretreatment with L-NAME (40 mg/kg i.p.) (Sigma-Aldrich) was given 2 h prior to exposure to HBO.
Mobilization of EPCs into circulation was studied using flow cytometry as previously described. Cells isolated from mice were incubated with various Abs (BD Biosciences). Isotype matched mouse immunoglobulins served as controls. One million viable cells were analyzed per sample using an LSR2 multicolor flow cytometer (BD Biosciences). Data was analyzed using FlowJo software (Treestar, Inc.).
Physiologically, increased levels of BM NO result in activation of MMP-9 and conversion of kit ligand to its soluble form, ultimately generating EPC release into circulation. To study the effects of the hyperoxia-induced rise in NO levels in the marrow cavity on mobilization of EPCs into circulation, peripheral blood from diabetic mice was analyzed for EPCs using flow cytometry. A determination of whether hyperoxia, induced by HBO, increases the number of circulating EPCs in the peripheral blood of diabetic mice was made. Specifically, peripheral blood of diabetic mice was examined 18 h after a single HBO treatment. After excluding dead DAPI^+labeled cells, candidate lymphocytes, identified by their typical appearance on forward and side scatter, were gated and CD45^+/CD3^+cell populations were excluded. […] Therefore, several marker combinations were used to quantitate circulating EPCs. […]

ischemic hindlimb wounds = assay: Hindlimb ischemia (femoral ligation/excision): perfusion, wound BMD EPC and wound healing with daily HBO2; type: in vivo, mouse; details: 40 mg/kg i.p.
Protocol: In addition, it was observed that HBO2 daily treatments (2.4ATA 100% O2 for 90 min) improved hindlimb perfusion by Laser Doppler Imaging (LDF) after femoral ligation/excision (FIG. 6) and increased the bone marrow-derived (BMD) EPC within the incisional wounds, 3 d post-wounding (with 4 HBO2 treatments) (FIG. 7). By day 8 after wounding, ischemic excisional punch biopsy wounds treated daily with HBO2 healed faster (FIG. 8). […] Each day animals were harvested, and blood (retro-orbital bleeding) and bone marrow (flushing of tibias and femurs) collected (3 mice for each time point had bone marrow collected and 5 mice for each time point had blood collected). VEGFR-2 (kdr) mRNA was semi-quantitated by RT PCR.

[6] = system: NO synthesis in bone marrow (NOS); assay: Real-time bone marrow NO measurement with NO microelectrode during HBO; type: in vivo, mouse
Protocol: as §3
In early studies, it was hypothesized that HBO2 augments stem cell mobilization because it stimulates •NO synthesis in the bone marrow, as •NO is known to play a central role with stem cell release from bone marrow. […] Mice were placed in a hyperbaric chamber where, while breathing air, baseline measurements were obtained. The chamber was then flushed with 100% O2 and compressed to 2.4 ATA O2.
Physiologically, the NO-mediated EPC release into circulation occurs in response to tissue-level hypoxia, although this compensatory response is inadequate in the setting of diabetes and results in severe defects in neovascularization and wound healing. […] Therefore, it was sought to utilize HBO as a tool to augment EPC release into circulation and further study both EPC mobilization and wound-homing mechanisms in the presence of diabetes. The goal was to determine whether hyperoxia stimulates NO production in the BM of diabetic mice via a NOS-mediated pathway and whether this pathway is impaired in diabetes. To test this hypothesis, Nafion polymer—coated NO microsensors were inserted into the femur BM space of both STZ induced diabetic and nondiabetic mice to measure real-time NO levels within the BM prior to and is during HBO-induced hyperoxia. […] It was speculated, that this was likely due to a compensatory effect from other NOS isoforms, and therefore the level of both iNOS and nNOS was examined in diabetic mice. […] However, no observation was made of any changes in the phosphorylation of these NOS isoforms.

[7] = system: EPC (cells co-expressing CD34 and Sca-1); assay: EPC mobilization (CD34+/Sca-1+ cells in peripheral blood) in mice exposed to HBO2; type: in vivo, mouse; details: wild-type mice, 40 mg/kg i.p. 2 hours prior to pressurization
Protocol: In the initial studies searching for the mechanisms for EPC mobilization with HBO2 EPC (assessed as cells that co-expressed CD34 and stem cell antigen-1 (Sca-1)) were also evaluated in peripheral blood of mice. […] In preliminary studies, mice were exposed to HBO2 for 90 minutes at up to 2.8 ATA and also to a pressure control, 2.8 ATA pressure using a gas containing 7.5% O2 (so that O2 partial pressure was the same as ambient air, 0.21 ATA O2). In select studies, mice were pre-treated with intraperitoneal L-nitroarginine methyl ester (L-NAME, to inhibit nitric oxide synthase [NOS]), 40 mg/kg i.p. administered 2 hours prior to pressurization). In anesthetized mice, blood was obtained by aortic puncture and bone marrow was harvested by clipping the ends off a tibia and flushing the marrow cavity with 1 ml PBS. Exposure to 2.8 ATA O2 (but not 100% O2 at ambient pressure or 2.8 ATA pressure at a total O2 partial pressure of only 0.21 ATA O2) increased EPC mobilization immediately after treatment, as well as 16 hrs post-treatment, and with repeated treatments (FIG. 4).
There is precedence for rapid mobilization of stem cells from bone marrow, but most emigration is believed to occur after a period of cell proliferation within the marrow niche.

stem cell factor (SCF) = assay: Plasma stem cell factor by Quantikine M immunoassay in mice (Table I); type: in vivo, mouse; details: for Plasma SCF if mice pre-treated with L-NAME: L-NAME pre-treatment

For `CN(N=O)C(=O)N[C@@H](C=O)[C@@H](O)[C@H](O)[C@H](O)CO` [STZ, streptozocin], the “Serum glucose, average” value [1] was 461 mg/dL and the “Serum glucose, range” value [1] was 372 to 520 mg/dL.

With SDF-1α the “systemic (peripheral blood) SDF-1α concentration” value [2] was “increased”, the “wound healing rates compared with PBS treated controls” value [3] was “statistically improved” and the “collagen deposit and vessel density” value (wound granulation tissue) was “significant increase”. For the same molecule, the “increase in wound-level EPCs (GFP+/VEGFR2+)” value ([4]; diabetic chimeric mice, 3 d of treatment, vs untreated diabetic mice) was 3 fold, the “EPCs recruited/homing to wound tissue” value ([4]; diabetic mice) was “significant increase” and the “local SDF-1α level in diabetic wound” value (SDF-1α in wound tissue) was “dramatically increased”. For the same molecule, the “circulating EPCs versus other groups / PBS” value ([5]; wounded diabetic mice, 48 h post-wounding, FIG. 15A) was “statistically significant increase” and the “increase in circulating EPCs (CXCR4+/VEGFR2+)” value ([5]; wounded diabetic mice, daily treatment, 48 h post-wounding) was 2 fold.

For `COC(=O)[C@@H](N)CCCNC(=N)N[N+](=O)[O-]` [L-NAME, L-nitroarginine methyl ester], the “HBO2 wound healing improvements with L-NAME prior to HBO2” value (ischemic hindlimb wounds) was “not observed”, the “NO signal in bone marrow with L-NAME pre-treatment” value ([6]; 40 mg/kg ip before 2.4 ATA O2) was “no •NO signal was detected” and the “hyperoxia-induced increases in BM NO production after pretreatment” value ([6]; diabetic and nondiabetic mice) was “completely inhibited; also recorded: Complete inhibition”. The “EPC mobilization with L-NAME injected before HBO2” value [7] was “did not occur”, the “Plasma SCF if mice pre-treated with L-NAME” value (stem cell factor (SCF); air-breathing (control) mice) was 39.4 ± 1.9 pg/mL and the “Plasma SCF if mice pre-treated with L-NAME” value (stem cell factor (SCF); then 2.8 ATA O2, 16 hours after) was 42.4 ± 2.5 pg/mL. The “HBO2-induced SCF elevation with L-NAME” value (stem cell factor (SCF); mouse, in vivo) was “blocked” and the “EPC mobilization following HBO in L-NAME pre-treated animals” value ([5]; mouse, in vivo) was “No increase; also recorded: inhibited”.
